In patent publication US20160175306A1, “COMBINATION OF A IMIDAZOPYRIDAZINE DERIVATIVE AND A MITOTIC AGENT FOR THE TREATMENT OF CANCER” (BAYER PHARMA AKTIENGESELLSCHAFT, priority 2013, published 2016):
Read-outs that look alike come from different tables or passages of the source. Marks after values point to notes of the source that are not given here.

How the values were obtained:
rat hepatocytes = experiment: In vitro metabolic stability in rat hepatocytes; type: in vitro ADME; details: 1 μM test compound, calculated from half-life
Protocol: Investigation of In Vitro Metabolic Stability in Rat Hepatocytes (Including Calculation of Hepatic In Vivo Blood Clearance (CL))
Hepatocytes from Han Wistar rats were isolated via a 2-step perfusion method. After perfusion, the liver was carefully removed from the rat: the liver capsule was opened and the hepatocytes were gently shaken out into a Petri dish with ice-cold WME. The resulting cell suspension was filtered through sterile gaze in 50 ml falcon tubes and centrifuged at 50×g for 3 min at room temperature.
The cell pellet was resuspended in 30 ml WME and centrifuged through a Percoll® gradient for 2 times at 100×g. The hepatocytes were washed again with Williams' medium E (WME) and resuspended in medium containing 5% FCS. Cell viability was determined by trypan blue exclusion.
For the metabolic stability assay liver cells were distributed in WME containing 5% FCS to glass vials at a density of 1.0×10^6 vital cells/m. The test compound was added to a final concentration of 1 μM. During incubation, the hepatocyte suspensions were continuously shaken and aliquots were taken at 2, 8, 16, 30, 45 and 90 min, to which equal volumes of cold methanol were immediately added. Samples were frozen at −20° C. over night, after subsequently centrifuged for 15 minutes at 3000 rpm and the supernatant was analyzed with an Agilent 1200 HPLC-system with LCMS/MS detection.
The half-life of a test compound was determined from the concentration-time plot. From the half-life the intrinsic clearances were calculated. Together with the additional parameters liver blood flow, amount of liver cells in vivo and in vitro. The hepatic in vivo blood clearance (CL) and the maximal oral bioavailability (Fmax) was calculated. The following parameter values were used: Liver blood flow—4.2 L/h/kg rat; specific liver weight—32 g/kg rat body weight; liver cells in vivo—1.1×10^8 cells/g liver, liver cells in vitro—0.5×10^6/ml.

human kinase Mps-1 = target: T1, human kinase Mps-1 (Homo sapiens, UniProt P33981); experiment: Mps-1 Kinase Assay (TR-FRET); type: biochemical; details: 10 μM ATP
T1 construct: N-terminally GST-tagged human full length recombinant Mps-1 kinase; purchased Invitrogen, Karslruhe, Germany PV4071
T1 sequence (P33981 1-857): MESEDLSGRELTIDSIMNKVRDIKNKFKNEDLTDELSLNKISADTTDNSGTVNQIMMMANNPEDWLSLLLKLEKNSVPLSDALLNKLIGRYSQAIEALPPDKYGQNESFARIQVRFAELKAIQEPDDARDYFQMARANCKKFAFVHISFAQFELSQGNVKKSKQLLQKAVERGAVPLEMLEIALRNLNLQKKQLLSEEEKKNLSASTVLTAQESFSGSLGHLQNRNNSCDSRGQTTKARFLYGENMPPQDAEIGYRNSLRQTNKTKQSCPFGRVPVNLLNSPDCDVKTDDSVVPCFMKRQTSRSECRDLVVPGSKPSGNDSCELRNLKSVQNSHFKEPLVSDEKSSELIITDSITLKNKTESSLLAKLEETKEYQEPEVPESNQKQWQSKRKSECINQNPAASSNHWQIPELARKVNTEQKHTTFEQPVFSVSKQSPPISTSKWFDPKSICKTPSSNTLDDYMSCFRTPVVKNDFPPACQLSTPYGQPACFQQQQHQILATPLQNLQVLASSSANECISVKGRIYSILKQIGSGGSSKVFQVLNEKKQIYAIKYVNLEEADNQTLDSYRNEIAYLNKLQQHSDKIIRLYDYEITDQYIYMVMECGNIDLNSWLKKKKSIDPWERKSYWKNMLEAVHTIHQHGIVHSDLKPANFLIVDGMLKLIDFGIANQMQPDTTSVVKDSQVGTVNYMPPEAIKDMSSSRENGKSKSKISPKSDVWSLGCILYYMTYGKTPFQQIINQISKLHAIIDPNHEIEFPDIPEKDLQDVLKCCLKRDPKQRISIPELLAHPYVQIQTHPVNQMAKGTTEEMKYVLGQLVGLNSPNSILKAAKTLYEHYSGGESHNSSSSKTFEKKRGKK
Protocol: The human kinase Mps-1 phosphorylates a biotinylated substrate peptide. Detection of the phosphorylated product is achieved by time-resolved fluorescence resonance energy transfer (TR-FRET) from Europium-labelled anti-phospho-Serine/Threonine antibody as donor to streptavidin Labelled with cross-linked allophycocyanin (SA-XLent) as acceptor. Compounds are tested for their inhibition of the kinase activity.
N-terminally GST-tagged human full length recombinant Mps-1 kinase (purchased from Invitrogen, Karslruhe, Germany, cat. no PV4071) was used. As substrate for the kinase reaction a biotinylated peptide of the amino-acid sequence […] (C-terminus in amide form, purchased from Biosynthan GmbH, Berlin) was used.
The concentration of Mps-1 in the assay was adjusted to the activity of the enzyme lot and was chosen appropriate to have the assay in the linear range, typical enzyme concentrations were in the range of about 1 nM (final conc. in the 5 μl assay volume).
The resulting mixture was incubated 1 h at 22° C. to allow the binding of the phosphorylated peptide to the anti-phospho(Ser/Thr)-Europium-antibody. Subsequently the amount of phosphorylated substrate was evaluated by measurement of the resonance energy transfer from the Europium-labelled anti-phospho(Ser/Thr) antibody to the Streptavidin-XLent.

[1] = test system: A2780cis human ovarian cancer xenograft model
Protocol: In Vivo Anti-Tumor Efficacy of Mps-1 Kinase Inhibitors of the Present Invention in Combination with Paclitaxel in A2780cis Human Ovarian Cancer Model in Nude Mice
The effect of combination treatment of an Mps-1 kinase inhibitor of the present invention and paclitaxel was studied in the adaptive cisplatin-resistant and paclitaxel intrinsically resistant A2780cis xenograft model. […] Animal body weight and tumor size were determined three times weekly. Treatment for all groups started at a tumor size of 29 mm^2, at day 6 after tumor cell inoculation. […] At the end of the study after one final treatment plasma and tumors were sampled for PK analysis and final tumor weight was determined.

[2] = test system: NCI-H1299 human NSCLC xenograft model; details: for T/C area: relative tumor area at control dosing stop
Excerpt: In Vivo Anti-Tumor Efficacy of Mps-1 Kinase Inhibitors of the Present Invention in Combination with Paclitaxel in NCI-H1299 Human NSCLC Model in Nude Mice
The effect of combination treatment of an Mps-1 kinase inhibitor of the present invention and paclitaxel was studied in the NCI-H1299 taxane intrinsically resistant human lung carcinoma (NSCLC) xenograft model in nude mice. […] Substances were formulated in optimal vehicles to achieve solutions. Animal body weight and tumor size were determined three times weekly. Treatment for all groups started at a tumor size of 30 mm^2, at day 8 after tumor cell inoculation. […] At the end of the study after one final treatment plasma and tumors were sampled for PK analysis and final tumor weight was determined.

[3] = Paclitaxel 20/15 (d19) mg/kg QD 2on/6off i.v.

Structure (SMILES): COc1ccc(C(F)(F)c2cc(NCCC(F)(F)F)c3ncc(-c4ccc(C(=O)NC5CC5)c(C)c4)n3n2)cc1F [Compound A2, N-Cyclopropyl-4-{6-[difluoro(3-fluoro-4-methoxyphenyl)methyl]-8-[(3,3,3-trifluoropropyl)amino]imidazo[1,2-b]pyridazin-3-yl}-2-methylbenzamide]
- Fmax (maximal oral bioavailability) (rat hepatocytes): 64%
- IC50 (human kinase Mps-1): 0.6 nM

Structure (SMILES): COc1cccc(C(=O)c2cc(NCCC(F)(F)F)c3ncc(-c4ccc(C(=O)NC5CC5)c(C)c4)n3n2)c1 [Compound A7, N-Cyclopropyl-4-{6-(3-methoxybenzoyl)-8-[(3,3,3-trifluoropropyl)amino]imidazo[1,2-b]pyridazin-3-yl}-2-methylbenzamide]
- Fmax (maximal oral bioavailability) (rat hepatocytes): 26%
- IC50 (human kinase Mps-1): 0.5 nM

Structure (SMILES): C=C(c1cccc(OC)c1)c1cc(NCCC(F)(F)F)c2ncc(-c3ccc(C(=O)NC4CC4)c(C)c3)n2n1 [Compound A8, N-Cyclopropyl-4-{6-[1-(3-methoxyphenyl)vinyl]-8-[(3,3,3-trifluoropropyl)amino]imidazo[1,2-b]pyridazin-3-yl}-2-methylbenzamide]
- Fmax (maximal oral bioavailability) (rat hepatocytes): 57%
- IC50 (human kinase Mps-1): 0.8 nM

Structure (SMILES): COc1ccc(C(=O)c2cc(NCCC(F)(F)F)c3ncc(-c4ccc(C(=O)NC5CC5)c(C)c4)n3n2)cc1 [Compound A9, N-Cyclopropyl-4-{6-(4-methoxybenzoyl)-8-[(3,3,3-trifluoropropyl)amino]imidazo[1,2-b]pyridazin-3-yl}-2-methylbenzamide]
- Fmax (maximal oral bioavailability) (rat hepatocytes): 71%
- IC50 (human kinase Mps-1): 1.2 nM

Structure (SMILES): C=C(c1ccc(OC)cc1)c1cc(NCCC(F)(F)F)c2ncc(-c3ccc(C(=O)NC4CC4)c(C)c3)n2n1 [Compound A10, N-Cyclopropyl-4-{6-[1-(4-methoxyphenyl)vinyl]-8-[(3,3,3-trifluoropropyl)amino]imidazo[1,2-b]pyridazin-3-yl}-2-methylbenzamide]
- Fmax (maximal oral bioavailability) (rat hepatocytes): 48%
- IC50 (human kinase Mps-1): 0.5 nM

Structure (SMILES): Cc1cc(-c2cnc3c(NCCC(F)(F)F)cc(C(=O)c4cc(F)ccc4F)nn23)ccc1C(=O)NC1CC1 [Compound A12, N-Cyclopropyl-4-{6-(2,5-difluorobenzoyl)-8-[(3,3,3-trifluoropropyl)amino]imidazo[1,2-b]pyridazin-3-yl}-2-methylbenzamide]
- Fmax (maximal oral bioavailability) (rat hepatocytes): 67%
- IC50 (human kinase Mps-1): 0.6 nM

Structure (SMILES): Cc1cc(-c2cnc3c(NCCC(F)(F)F)cc(C(=O)c4cccc(F)c4F)nn23)ccc1C(=O)NC1CC1 [Compound A14, N-Cyclopropyl-4-{6-(2,3-difluorobenzoyl)-8-[(3,3,3-trifluoropropyl)amino]imidazo[1,2-b]pyridazin-3-yl}-2-methylbenzamide]
- Fmax (maximal oral bioavailability) (rat hepatocytes): 51%
- IC50 (human kinase Mps-1): 0.6 nM

Structure (SMILES): C=C(c1cc(NCCC(F)(F)F)c2ncc(-c3ccc(C(=O)NC4CC4)c(C)c3)n2n1)c1cccc(F)c1F [Compound A15, N-Cyclopropyl-4-{6-[1-(2,3-difluorophenyl)vinyl]-8-[(3,3,3-trifluoropropyl)amino]imidazo[1,2-b]pyridazin-3-yl}-2-methylbenzamide]
- Fmax (maximal oral bioavailability) (rat hepatocytes): 53%
- IC50 (human kinase Mps-1): 0.4 nM

Structure (SMILES): Cc1cc(-c2cnc3c(NCCC(F)(F)F)cc(C(F)(F)c4cccc(F)c4F)nn23)ccc1C(=O)NC1CC1 [Compound A18, N-Cyclopropyl-4-{6-[(2,3-difluorophenyl)(difluoro)methyl]-8-[(3,3,3-trifluoropropyl)amino]imidazo[1,2-b]pyridazin-3-yl}-2-methylbenzamide]
- Fmax (maximal oral bioavailability) (rat hepatocytes): 76%
- IC50 (human kinase Mps-1): 1.5 nM

Structure (SMILES): C=C(c1cc(NCCC(F)(F)F)c2ncc(-c3ccc(C(=O)NC4CC4)c(C)c3)n2n1)c1cc(F)ccc1O [Compound A22, N-cyclopropyl-4-{6-[1-(5-fluoro-2-hydroxyphenyl)ethenyl]-8-[(3,3,3-trifluoropropyl)amino]imidazo[1,2-b]pyridazin-3-yl}-2-methylbenzamide]
- Fmax (maximal oral bioavailability) (rat hepatocytes): 28%
- IC50 (human kinase Mps-1): 0.4 nM

Structure (SMILES): C=C(c1cccc(F)c1)c1cc(NCCC(F)(F)F)c2ncc(-c3ccc(C(=O)NC4CC4)c(C)c3)n2n1 [Compound A24, N-cyclopropyl-4-{6-[1-(3-fluorophenyl)ethenyl]-8-[(3,3,3-trifluoropropyl)amino]imidazo[1,2-b]pyridazin-3-yl}-2-methylbenzamide]
- Fmax (maximal oral bioavailability) (rat hepatocytes): 48%
- IC50 (human kinase Mps-1): 0.3 nM

Structure (SMILES): Cc1cc(-c2cnc3c(NCCC(F)(F)F)cc(C4(c5cccc(F)c5)CC4)nn23)ccc1C(=O)NC1CC1 [Compound A25, N-cyclopropyl-4-{6-[1-(3-fluorophenyl)cyclopropyl]-8-[(3,3,3-trifluoropropyl)amino]imidazo[1,2-b]pyridazin-3-yl}-2-methylbenzamide]
- Fmax (maximal oral bioavailability) (rat hepatocytes): 52%
- IC50 (human kinase Mps-1): 0.9 nM

Structure (SMILES): CC(=O)O[C@H]1C(=O)[C@@]2(C)[C@H]([C@H](OC(=O)c3ccccc3)[C@]3(O)C[C@H](OC(=O)[C@H](O)[C@@H](NC(=O)c4ccccc4)c4ccccc4)C(C)=C1C3(C)C)[C@]1(OC(C)=O)CO[C@@H]1C[C@@H]2O [Paclitaxel, (2α,4α,5β,7β,10β,13α)-4,10-bis(acetyloxy)-13-{[(2R,3S)-3-(benzoylamino)-2-hydroxy-3-phenylpropanoyl]oxy}-1,7-dihydroxy-9-oxo-5,20-epoxytax-11-en-2-yl benzoate, reference compound]
- Fatal Tox [1, 3]: 0/10
- T/C area ([1]; Paclitaxel 20/15 (d19) mg/kg QD 2on/6off i.v., relative tumor area at control dosing stop): 0.06^#
- Max. Body weight loss ([1]; mouse, in vivo, iv): −0.7%
- Fatal Tox [2, 3]: 0/10
- T/C area [2, 3]: 0.13^#
- T/C area ([2]; Paclitaxel 20/15 (d19) mg/kg QD 2on/6off i.v., listed as paclitaxel): 0.13
- Max. Body weight loss ([2]; mouse, in vivo, iv): −1.9%
